Source: patent US20240425452A1
“And” between values parts separate entries of the source, which are not always exact repeats. Equal values may be shown once. Read-outs that look alike come from different tables or passages of the source. Each block holds one compound with its values, some of them ahead of it.

Legend:
[1] = Exposure of trans isomer to artificial daylight, 1H NMR analysis; assay type: physicochemical; settings: 10% d6-DMSO in buffer pH 7.4, artificial daylight 5 hr
Description: A sample of substantially pure trans isomer of 3-(2-bromo-3,4-dihydroxy-phenyl)-N-(3,4,5-trihydroxy-benzyl)-thioacrylamide in 10% d6-DMSO in a buffer (pH 7.4) was irradiated with an artificial daylight for 5 hr. Thereafter, the solution was characterized by ^1H-NMR analyses.
Thus, differentiating between the two isomers can be performed using ^1H-NMR analysis.

[2] = Interactions with water molecules, thermogravimetric analysis (TGA); assay type: physicochemical; settings: TGA 30-200° C. at 10° C./min, 1 mM in water with 1% DMSO
Experimental: TGA was performed on a Perkin Elmer TGA 800 using Pyris software. A temperature scan from 30° C. to 200° C. at a rate of 10° C./min was performed. The isomers were analyzed at a concentration of 1 mM in water (containing 1% DMSO).

[3] = Stability in biorelevant fluids (FaSSGF, FaSSIF), HPLC; settings: for Percent of isomer in FaSSGF / Percent of isomer in FaSSIF: 250 μM
Experimental: The stability of the trans and cis isomers of 3-(2-bromo-3,4-dihydroxy-phenyl)-N-(3,4,5-trihydroxy-benzyl)-thioacrylamide in biorelevant fluids was assessed, including Fasted State Simulated Intestinal Fluid (FaSSIF) and Fasted State Simulated Gastric Fluid (FaSSGF).
A solution containing the cis isomer of 3-(2-bromo-3,4-dihydroxy-phenyl)-N-(3,4,5-trihydroxy-benzyl)-thioacrylamide was prepared by exposing a 5 mL solution of the 100% trans isomer at a concentration of 1 mM to 125 lux light for 9 hours at 4° C.
FaSSIF and FaSSGF solutions were prepared according to the manufacturer's instructions.
The cis and trans isomers of 3-(2-bromo-3,4-dihydroxy-phenyl)-N-(3,4,5-trihydroxy-benzyl)-thioacrylamide were diluted in either FaSSIF or FaSSGF solutions to a final concentration of 250 μM. Samples were taken at time 0 and after 4 hours. Samples were frozen in liquid nitrogen, and stored frozen until analysis.

[4] = assay type: physicochemical; settings: 1 mM, 125 lux light
Description: An additional assessment of the stability of the trans isomer upon exposure to artificial daylight was made.

[5] = Exposure of trans isomer in HPCD solution to room lighting, UV analysis; assay type: physicochemical; settings: 0.5 mg/mL in 0.025% phosphoric acid (diluted from HPCD solution), clear glass vials, room lighting several days
[6] = Octanol:water partition coefficient (Log P), HPLC
[7] = simulated intestinal fluid, 0 h
[8] = simulated intestinal fluid, 0.5 h

conversion of the trans isomer to the cis isomer (1H-NMR) [1]: significant conversion
Maximum evaporation rate (bound water) [2]: 12%/min
Maximum evaporation rate (free water) [2]: 23 %/min
Temperature of mid evaporation (free water) [2]: 87 °C
Maximum evaporation rate (free water) ([2]; listed as Trans isomer): 23%/min
Percent of isomer in FaSSGF ([3]; simulated gastric fluid, 0 h): 100%
Percent of isomer in FaSSGF ([3]; simulated gastric fluid, 0.5 h): 100%
Percent of isomer in FaSSGF ([3]; simulated gastric fluid, 4 h): 100%
stability in FaSSGF ([3]; simulated gastric fluid, up to 4 h): completely stable
reduction of concentration in FaSSIF ([3]; simulated intestinal fluid, 0 to 4 h): ~7%
Percent of isomer in FaSSIF [3, 7]: 98.15%
Percent of isomer in FaSSIF [3, 8]: 96.25%
Percent of isomer in FaSSIF ([3]; simulated intestinal fluid, 4 h): 90.98%
logP at 24 h (physchem): 0.86
% cis ([4]; 0 hours): 0%
% trans ([4]; 0 hours): 100%
% trans ([4]; 1 hour): 50.5%
% cis ([4]; 2 hours): 64% and 63.7%
% trans ([4]; 2 hours): 36.3%
% cis ([4]; 4 hours): 87.7%
% trans ([4]; 4 hours): 12.3%
% trans ([4]; 5 hours): 8.5%
% cis ([4]; 6 hours): 92.1%
% trans ([4]; 6 hours): 7.9%
SMILES: Oc1cc(CNC(=S)/C=C/c2ccc(O)c(O)c2Br)cc(O)c1O [trans isomer]
conversion of the trans isomer to the cis isomer [5]: conversion of the trans isomer to the cis isomer

SMILES: Oc1cc(CNC(=S)C=Cc2ccc(O)c(O)c2Br)cc(O)c1O (single isomer, unassigned; isomer 3) [cis isomer]
Maximum evaporation rate (bound water) [2]: 12%/min
Maximum evaporation rate (free water) [2]: 37 %/min
Temperature of mid evaporation (free water) [2]: 58 °C
Maximum evaporation rate (free water) ([2]; listed as Cis isomer): 37%/min
logP at 24 h [6]: -0.18
reduction of concentration in FaSSGF ([3]; simulated gastric fluid, 0 to 4 h): ~16%
Percent of isomer in FaSSGF ([3]; simulated gastric fluid, 0 h): 89.05%
Percent of isomer in FaSSGF ([3]; simulated gastric fluid, 0.5 h): 89.07%
Percent of isomer in FaSSGF ([3]; simulated gastric fluid, 4 h): 73.47%
Percent of isomer in FaSSIF [3, 7]: 83.49%
Percent of isomer in FaSSIF [3, 8]: 72.21%
Percent of isomer in FaSSIF ([3]; simulated intestinal fluid, 4 h, listed as Cis): 54.87%
Percent of isomer in FaSSIF ([3]; simulated intestinal fluid, 4 h, listed as cis): ~55%
